From patent publication US20250160324A1, “ACIDIFIED OLEOGEL AND METHODS OF USE” (University of Massachusetts, priority 2023, published 2025) come the findings set out here.

Structures are written as SMILES. Bounds are passed on as bounds.

A short description of data set [1]: Water activity (aw) by Dewpoint aw meter. The format is physicochemical. To be noted: 200 mM organic acid.
Data set [2] concerns desiccated Salmonella enterica subsp. enterica serovar Enteritidis phage type 30 (ATCC BAA-1045). Put plainly: Antimicrobial assay against cells desiccated on stainless-steel coupons. The class given is cell-based. The note with it: 200 mM organic acid, 30-min contact; for MLR ± SD, W/O emulsion, 22° C. / MLR ± SD, W/O emulsion, 45° C.: 1% v/v water; for MLR ± SD, W/O emulsion, 22° C. / MLR ± SD, W/O emulsion, 45° C. / MLR ± SD, W/O emulsion with glycerol, 45° C. / MLR ± SD, W/O emulsion with glycerol, 22° C.: 75% ERH; for MLR ± SD, Oil with PGPR, 45° C. / MLR ± SD, Oil with PGPR, 22° C.: cells desiccated to 75% ERH.

With `O=CO` [Formic, formic/methanoic acid], the “measured solution aw of acidified oil” value in data set [1] came out at 0.51.
`CCCCCCCCCCC(=O)O` [Undecylic, undecylic/undecanoic acid]: in data set [2], the “MLR ± SD, W/O emulsion, 22° C.” value is given as 0.38 ± 0.09; the “MLR ± SD, W/O emulsion, 45° C.” value is listed as >6.52; the “MLR ± SD, W/O emulsion with glycerol, 45° C.” value is 0.22 ± 0.18; the “MLR ± SD, Oil with PGPR, 45° C.” value is 0.31 ± 0.03.
Take `CCCCCCCCCC(=O)O` [Capric, capric/decanoic acid]: in data set [2], the “MLR ± SD, W/O emulsion, 22° C.” value came out at 0.67 ± 0.17; the “MLR ± SD, W/O emulsion, 45° C.” value was >6.52; the “MLR ± SD, W/O emulsion with glycerol, 22° C.” value was 0.37 ± 0.06; the “MLR ± SD, W/O emulsion with glycerol, 45° C.” value came to 0.57 ± 0.09. Besides, in data set [2], the “MLR ± SD, Oil with PGPR, 22° C.” value is given as 0.23 ± 0.04 and the “MLR ± SD, Oil with PGPR, 45° C.” value amounted to 0.28 ± 0.09.
Take `CCC(=O)O` [Propionic, propionic/propanoic acid]: in data set [2], the “MLR ± SD, W/O emulsion, 22° C.” value was >6.52; the “MLR ± SD, W/O emulsion, 45° C.” value is reported as >6.52; the “MLR ± SD, W/O emulsion with glycerol, 22° C.” value came out at 0.73 ± 0.22; the “MLR ± SD, W/O emulsion with glycerol, 45° C.” value was determined as 1.41 ± 0.66. Also, in data set [2], the “MLR ± SD, Oil with PGPR, 22° C.” value was 0.89 ± 0.24 and the “MLR ± SD, Oil with PGPR, 45° C.” value stood at 1.11 ± 0.27. In addition, in data set [2] (listed as C3), the “MLR ± SD, Oil with PGPR, 22° C.” value amounted to 0.89 and the “MLR ± SD, Oil with PGPR, 45° C.” value stood at 1.11.
As to `CCCCCCC(=O)O` [Enanthic, enanthic/heptanoic acid], in data set [2], the “MLR ± SD, W/O emulsion, 22° C.” value was 0.34 ± 0.26; the “MLR ± SD, W/O emulsion, 45° C.” value is >6.52; the “MLR ± SD, W/O emulsion with glycerol, 45° C.” value amounted to 0.79 ± 0.22; the “MLR ± SD, Oil with PGPR, 45° C.” value came to 0.34 ± 0.03.
Turning to `CCCCCCCC(=O)O` [Caprylic, caprylic/octanoic acid], in data set [2], the “MLR ± SD, W/O emulsion, 22° C.” value was 0.94 ± 0.26; the “MLR ± SD, W/O emulsion, 45° C.” value is listed as >6.52; the “MLR ± SD, W/O emulsion with glycerol, 22° C.” value was 0.56 ± 0.18; the “MLR ± SD, W/O emulsion with glycerol, 45° C.” value is reported as 0.74 ± 0.11. The “MLR ± SD, Oil with PGPR, 45° C.” value in data set [2] stood at 0.49 ± 0.26.
Consider `CC(=O)O` [Acetic, acetic/ethanoic acid], for which, in data set [2], the “MLR ± SD, W/O emulsion, 22° C.” value was >6.52; the “MLR ± SD, W/O emulsion, 45° C.” value was >6.52; the “MLR ± SD, W/O emulsion with glycerol, 22° C.” value is recorded as 0.81 ± 0.24; the “MLR ± SD, W/O emulsion with glycerol, 45° C.” value turned out to be 2.53 ± 0.75. In addition, in data set [2], the “MLR ± SD, Oil with PGPR, 22° C.” value is recorded as 0.69 ± 0.19 and the “MLR ± SD, Oil with PGPR, 45° C.” value is 1.42 ± 0.14. In data set [2] (listed as C2), the “MLR ± SD, Oil with PGPR, 22° C.” value turned out to be 0.69 and the “MLR ± SD, Oil with PGPR, 45° C.” value amounted to 1.42.
Consider `CCCCC(=O)O` [Valeric, valeric/pentanoic acid], for which, in data set [2], the “MLR ± SD, W/O emulsion, 22° C.” value was determined as 0.11 ± 0.05; the “MLR ± SD, W/O emulsion, 45° C.” value is >6.52; the “MLR ± SD, W/O emulsion with glycerol, 45° C.” value amounted to 1.12 ± 0.16; the “MLR ± SD, Oil with PGPR, 45° C.” value is on record as 0.31 ± 0.02.
For `CCCCCCCCC(=O)O` [Pelargonic, pelargonic/nonanoic acid], in data set [2], the “MLR ± SD, W/O emulsion, 22° C.” value turned out to be 0.31 ± 0.10; the “MLR ± SD, W/O emulsion, 45° C.” value is recorded as >6.52; the “MLR ± SD, W/O emulsion with glycerol, 45° C.” value came out at 0.30 ± 0.09; the “MLR ± SD, Oil with PGPR, 45° C.” value came out at 0.39 ± 0.11.
Consider `CCCCCCCCCCCC(=O)O` [Lauric, lauric/dodecanoic acid], for which, in data set [2], the “MLR ± SD, W/O emulsion, 22° C.” value is on record as 1.05 ± 0.28; the “MLR ± SD, W/O emulsion, 45° C.” value is reported as >6.52; the “MLR ± SD, W/O emulsion with glycerol, 22° C.” value came to 0.49 ± 0.12; the “MLR ± SD, W/O emulsion with glycerol, 45° C.” value amounted to 1.02 ± 0.04. Also, in data set [2], the “MLR ± SD, Oil with PGPR, 22° C.” value is listed as 0.16 ± 0.06 and the “MLR ± SD, Oil with PGPR, 45° C.” value is 0.40 ± 0.17.
As for `CCCC(=O)O` [Butyric, butyric/butanoic acid], in data set [2], the “MLR ± SD, W/O emulsion, 22° C.” value amounted to 0.55 ± 0.06; the “MLR ± SD, W/O emulsion, 45° C.” value was >6.52; the “MLR ± SD, W/O emulsion with glycerol, 22° C.” value stood at 0.31 ± 0.16; the “MLR ± SD, W/O emulsion with glycerol, 45° C.” value stood at 1.40 ± 0.31. In addition, in data set [2], the “MLR ± SD, Oil with PGPR, 45° C.” value stood at 0.52 ± 0.13.
For the compound `CCCCCC(=O)O` [Caproic, caproic/hexanoic acid], in data set [2], the “MLR ± SD, W/O emulsion, 22° C.” value came out at 0.72 ± 0.18; the “MLR ± SD, W/O emulsion, 45° C.” value is >6.52; the “MLR ± SD, W/O emulsion with glycerol, 22° C.” value is reported as 0.10 ± 0.03; the “MLR ± SD, W/O emulsion with glycerol, 45° C.” value is 0.74 ± 0.48. Also, in data set [2], the “MLR ± SD, Oil with PGPR, 22° C.” value is on record as 0.21 ± 0.09 and the “MLR ± SD, Oil with PGPR, 45° C.” value worked out at 0.68 ± 0.08.
